In US20260124122A1, “QUATERNARY AMMONIUM SILANE AQUEOUS HYDROGEL FORMULATIONS” (priority 2023, published 2026):

How the values were obtained:
Type in all cases: physicochemical
[1] = Dissolution in water and stability of the aqueous solution of the isolated product; details: for dissolution of the product in water: isolated product
[2] = Precipitation on addition to hydrogels containing ionic or non-ionic, carboxylic acid group containing ingredients; details: zinc gluconate, sorbitol, glycerin
Method: 160 mls of distilled water was added to a 250 mL screw-top media bottle. 4 g of Xanthan gum was added slowly under vigorous stirring. The mixture was stirred overnight and the Xanthan gum was fully dissolved, with the mixture homogenous and clear. Zinc gluconate (0.2 g), sorbitol (10 g), glycerin (4 g), and Poloxamer 407 (0.4 g) were added to the mixture and stirred until homogenous and clear. […] At this point the process was stopped.
160 mls of distilled water was added to a 250 mL screw-top media bottle. 0.2 g of carbomer copolymer A was added slowly under vigorous stirring. The mixture was stirred overnight and the carbomer copolymer A was fully dissolved, with the mixture homogenous and clear. Zinc gluconate (0.2 g), sorbitol (10 g), glycerin (4 g), and Poloxamer 407 (0.4 g) were added to the mixture and stirred until homogenous and clear. […] At this point the process was stopped.
160 mls of distilled water was added to a 250 mL screw-top media bottle. 0.2 g of carbomer copolymer B was added slowly under vigorous stirring. The mixture was stirred overnight and the carbomer copolymer B was fully dissolved, with the mixture homogenous and clear. Zinc gluconate (0.2 g), sorbitol (10 g), glycerin (4 g), and Poloxamer 407 (0.4 g) were added to the mixture and stirred until homogenous and clear. […] At this point the process was stopped.
160 mls of distilled water was added to a 250 mL screw-top media bottle. 0.2 g of carrageenan was added slowly under vigorous stirring. The mixture was stirred overnight and the carrageenan was fully dissolved, with the mixture homogenous and clear. Zinc gluconate (0.2 g), sorbitol (10 g), glycerin (4 g), and Poloxamer 407 (0.4 g) were added to the mixture and stirred until homogenous and clear. […] At this point the process was stopped.
160 mls of distilled water was added to a 250 mL screw-top media bottle. 0.2 g of carboxymethylcellulose Sodium was added slowly under vigorous stirring. The mixture was stirred overnight and the Carboxymethylcellulose Sodium was fully dissolved, with the mixture homogenous and clear. Zinc gluconate (0.2 g), sorbitol (10 g), glycerin (4 g), and Poloxamer 407 (0.4 g) were added to the mixture and stirred until homogenous and clear. […] At this point the process was stopped.
160 mls of distilled water was added to a 250 mL screw-top media bottle. 0.2 g of Sodium Alginate was added slowly under vigorous stirring. The mixture was stirred overnight and the Sodium Alginate was fully dissolved, with the mixture homogenous and clear. Zinc gluconate (0.2 g), sorbitol (10 g), glycerin (4 g), and Poloxamer 407 (0.4 g) were added to the mixture and stirred until homogenous and clear. […] At this point the process was stopped.
160 mls of distilled water was added to a 250 mL screw-top media bottle. 4 g of HPMC having a viscosity 2600-5600 in H2O (20° C.) was added slowly under vigorous stirring. The mixture was stirred overnight and the HPMC was fully dissolved, with the mixture homogenous and clear. Zinc gluconate (0.2 g), sorbitol (10 g), glycerin (4 g), and sodium hyaluronate (0.4 g) were added to the mixture and stirred until homogenous and clear. […] At this point the process was stopped.

[3] = Hydrolysis of quaternary ammonium silane, Direct Infusion Mass Spectrometry, ESI+ mode
Method: In this example, hydrolysis of Compound VII was evaluated in the mass-spectrometry study (Direct Infusion Mass Spectrometry, ESI+ mode).
In a first experiment, Compound VII was dissolved in propylene glycol and diluted with acetonitrile to a final concentration of 10 μg/mL in the sample. […] Two minor peaks with m/z of 592 (Compound VII) and m/z of 534 (mono-hydrolyzed species of Compound VII) are present at low abundance. […] Exposure time during the HPLC-mass spec analysis is less than 45 seconds, further confirming the rapid hydrolysis of the quaternary ammonium silane upon exposure to water.
In a second experiment, Compound VII was diluted in water to a final concentration of 10 μg/mL in the sample. The mass spectrum of the sample was recorded at a 30-minute time point and is shown FIG. 3. Compound VII was completely hydrolyzed within the 30-minute time frame according to the following reaction scheme:
0.50% of Compound VII was formulated with 2% propylene glycol, 1% HPMC, 0.1% poloxamer 407, 2% PEG, and 94.40% water.

Which “time a solution in water remains clear” value ([1]; 1% solution in water) does the source give for `CCCCCCCCCCCCCCCCCC[N+](C)(C)CCC[Si](OCC(CO)(CO)NCCS(=O)(=O)[O-])(OCC(CO)(CO)NCCS(=O)(=O)O)OCC(CO)(CO)NCCS(=O)(=O)O` [Compound XIX, 2-[[1-[[3-[Dimethyl(octadecyl)ammonio]propyl-[3-hydroxy-2-(hydroxymethyl)-2-(2-sulfoethylamino)propoxy]-[3-hydroxy-2-(hydroxymethyl)-2-(2-sulfoethylamino)propoxy]silyl]oxymethyl]-2-hydroxy-1-(hydroxymethyl)ethyl]amino]-ethanesulfonate] here?
The value was greater than 5 months.

What about the “dissolution of the fine powder in water” value ([1]; water, gentle heating) of the same compound?
Its value is “dissolves quickly in water with gentle heating”.

What about the “precipitation on addition to the mixture” value ([2]; HPMC with sodium hyaluronate) of the same compound?
The value was “immediate precipitation”.

And the “precipitation on addition to the mixture” value ([2]; Sodium Alginate as gelling agent, Poloxamer 407)?
The value was “immediate precipitation”.

What about the “precipitation on addition to the mixture” value ([2]; Xanthan gum as gelling agent, Poloxamer 407) of the same compound?
Its value is “immediate precipitation”.

What about the “precipitation on addition to the mixture” value ([2]; carbomer copolymer A as gelling agent, Poloxamer 407) of the same compound?
The value was “immediate precipitation”.

And the “precipitation on addition to the mixture” value ([2]; carbomer copolymer B as gelling agent, Poloxamer 407)?
The value was “immediate precipitation”.

And the “precipitation on addition to the mixture” value ([2]; carboxymethylcellulose Sodium as gelling agent, Poloxamer 407)?
The value was “immediate precipitation”.

What about the “precipitation on addition to the mixture” value ([2]; carrageenan as gelling agent, Poloxamer 407) of the same compound?
Its value is “immediate precipitation”.

For `CCCCCCCCCCCCCCCCCC[N+](C)(C)CCC[Si](OCCCO)(OCCCO)OCCCO` [Example 5, Dimethyl-octadecyl-[3-[tris(3-hydroxypropoxy)silyl]propyl]ammonium chloride], which “dissolution of the product in water” value ([1]; water) is on record?
Its value is “dissolved readily in water”.

For `CCCCCCCCCCCCCCCCCC[N+](C)(C)CCC[Si](OCC(C)O)(OCC(C)O)OCC(C)O` (stereo not shown) [Example 1, Dimethyl-octadecyl-[3-[tris(2-hydroxypropoxy)silyl]propyl]ammonium chloride], which “dissolution of the product in water” value ([1]; water) is on record?
Its value is “dissolved readily in water”.

What does the source list for `CCCCCCCCCCCCCCCCCC[N+](C)(C)CCC[Si](OCC(C)O)(OCC(C)O)OCC(C)O.CS(=O)(=O)[O-]` (stereo not shown) [Compound VII, N,N-dimethyl-N-(3-(tris(2-hydroxypropoxy)silyl)propyl)octadecan-1-aminium methane sulfonate]?
extent of hydrolysis ([3]; 0.50% formulated with 2% propylene glycol, 1% HPMC, 0.1% poloxamer 407, 2% PEG, 94.40% water): complete hydrolysis; time frame of complete hydrolysis ([3]; diluted in water, 10 μg/mL): ≤ 30 min; extent of hydrolysis ([3]; diluted in water, 30-minute time point): complete hydrolysis; extent of hydrolysis ([3]; in propylene glycol diluted with acetonitrile, 10 μg/mL, 0.1% aqueous formic acid mobile phase, exposure less than 45 seconds): Partial hydrolysis

For `CCCCCCCCCCCCCCCCCC[N+](C)(C)CCC[Si](OCC(C)(CO)C(=O)O)(OCC(C)(CO)C(=O)O)OCC(C)(CO)C(=O)O` (stereo not shown) [Example 4, Dimethyl-octadecyl-[3-tris(2-carboxy-3-hydroxy-2-methyl-propoxy)silylpropyl]ammonium chloride], which “dissolution of the product in water” value ([1]; water) is on record?
The value was “dissolved readily in water”.
